Assay results published in patent publication US6660501B2, “Production of proteins by cell culture” (Lonza Group, AG, priority 1986, dated 2003).

Experiments:
[1] = tested on: IgM secreting mouse hybridoma cell line NB1/19; assay: Effect of sodium butyrate on hybridoma cell growth and antibody production, serum-free medium, shake flasks (ELISA); format: cell-based
Method: (§1) The IgM secreting mouse hybridoma cell line NB1/19 was grown in suspension culture in Dulbeccos Modified Eagles Minimum (DMEM) serum-free medium containing albumin, insulin, transferrin, gentamycin and other additives as required to cultivate cells in suspension culture. The NB1/19 cell line produces a mouse monoclonal antibody having specificity for an antigenic determinant of human B-type blood cells. The preparation of this call line is described in detail in the specification of British Patent GB 2097425B. It will be appreciated, however, that other hybridoma cell lines may be used in place of this particular cell line as appropriate in this and other examples.
(§2) The cells were grown to a viable cell density of 1.0-1.5×10^6 cells/ml. Viable cell density was determined by counting the number of cells which exclude trypan blue, a staining agent. A sample of the suspension culture was diluted in a serum-free medium to a density of about 1.3×10^5 cells/ml. Aliquots of 50 ml in volume were dispensed into shake flasks and sodium butyrate added at concentrations of 0.1 mM, 0.3 mM, 0.5 mM and 1.0 mM.
(§3) The shake flasks were gassed with 5% CO2-95% air, and sealed and incubated with shaking at 37° C. for up to 207 hours. (Table 1). Samples ([…]) were removed from the culture by pipette. 100 μl was used to determine viable cell count and the reminder centrifuged at 300×g for five minutes. Supernatants were stored at −20° C. prior to antibody determination by enzyme linked immunosorbent assay (ELISA).

hybridoma cell line A = assay: Harvest antibody titre, hybridoma cell line A; format: cell-based; details: SFM, control 28
Method: (§4) Hybridoma cells were grown in suspension culture in either serum-free medium (see Example 1) or in DMEM supplemented with 10% (v/v), heat inactivated foetal calf serum. Cells were cultured in either roller bottles or in shake-flasks, as in Example 1. Sodium butyrate was added to cultures immediately after inoculation.

hybridoma cell line B = assay: Harvest antibody titre, hybridoma cell line B; format: cell-based; details: SFM + 10% FCS, control 173
Method: as §4

hybridoma cell line C = assay: Harvest antibody titre, hybridoma cell line C; format: cell-based; details: DMEM + 10% FCS, 0.50 mM butyrate, control 51
Method: as §4

hybridoma cell line E = assay: Harvest antibody titre, hybridoma cell line E; format: cell-based; details: SFM, control 46
Method: as §4

hybridoma cell line G = assay: Harvest antibody titre, hybridoma cell line G; format: cell-based; details: SFM, control 10
Method: as §4

hybridoma cell line H = assay: Harvest antibody titre, hybridoma cell line H; format: cell-based; details: SFM, 0.50 mM butyrate, control 62
Method: as §4

hybridoma cell line K = assay: Harvest antibody titre, hybridoma cell line K; format: cell-based; details: SFM + 1% FCS, 0.50 mM butyrate, control 15
Method: as §4

Hybridoma cells = assay: Effect of sodium butyrate on a variety of hybridoma cell lines (summary statement); format: cell-based; details: butyrate added immediately after inoculation
Method: as §4

NT1/19 cells = assay: Effect of varying alkanoates on antibody production from hybridoma cells; format: cell-based; details: for AVERAGE DATA FROM EXP. #1 & #2: average of relative productivity, control 100.00; for PRODUCTIVITY EXP #2: control 2.39
Method: as §1, §2, §3
NT1/19 cells were cultured as in Example 1. Varying straight chain sodium alkanoate salts (propionate, butyrate, bentanoate or hexanoate) were added to the inoculum at the concentrations indicated in Table 5.

[2] = tested on: mouse C127 cell line producing recombinant tissue plasminogen activator (tPA); assay: Production of recombinant tPA from C127 cell line on microcarriers (fibrin-agar method; nuclei count); format: cell-based; details: for CONCENTRATION OF TPA PER ML: control 100
Method: A mouse C127 cell line producing recombinant tissue plasminogen activator (tPA) was cultured on microcarriers (gelibeads, K. C. Biologicals) in spinner vessels (Bellco). The growth medium was DMEM supplemented with 10% foetal calf serum. The concentration of microcarriers were 5 grams (dryweight) per liter of medium. Calls were inoculated at a density of 1×10^5 cells per ml.
After the cells had grown to confluency on the surface of the microcarriers, growth medium was aspirated and replaced with a protein-free DMEM-based maintenance medium containing the butyrate. Control cultures received no butyrate.
Cell density was determined by counting nuclei which were released from cells by hypotonic lysis (ref. Absher, in “Tissue Culture Methods and Applications”, Kruse & Patterson. Academic Press 1973). The concentration of tPA in the supernatant was assayed using the fibrin-agar method.

HeLa-cell cultures = details: cited from earlier work
[3] = tested on: Syrian hamster cells with plasmid containing SV40 genome and HSV-TK gene; details: concentrations ranging from 1 mM to 5 mM; Yuan et al; cited from earlier work

With `CCCC(=O)[O-].[Na+]` [sodium butyrate] the “Average specific rate of antibody production” value (shortened to “Average specific rate”) ([1]; 0.1 mM sodium butyrate) was 26 μg/10^6 cells/day, the antibody concentration ([1]; 0.1 mM sodium butyrate, 41 hours) was 34 µg/mL and the antibody concentration ([1]; 0.1 mM sodium butyrate, 87 hours) was 90 µg/mL. The antibody concentration ([1]; 0.1 mM sodium butyrate, 137 hours) was 128 µg/mL, the “Average specific rate” value ([1]; 0.3 mM sodium butyrate) was 26 μg/10^6 cells/day and the antibody concentration ([1]; 0.3 mM sodium butyrate, 41 hours) was 41 µg/mL. For the same molecule, the antibody concentration ([1]; 0.3 mM sodium butyrate, 87 hours) was 114 µg/mL, the antibody concentration ([1]; 0.3 mM sodium butyrate, 137 hours) was 147 µg/mL and the “Average specific rate” value ([1]; 0.5 mM sodium butyrate) was 31 μg/10^6 cells/day. For the same molecule, the antibody concentration ([1]; 0.5 mM sodium butyrate, 41 hours) was 50 µg/mL, the antibody concentration ([1]; 0.5 mM sodium butyrate, 87 hours) was 173 µg/mL and the antibody concentration ([1]; 0.5 mM sodium butyrate, 137 hours) was 173 µg/mL. The “Average specific rate” value ([1]; 1.0 mM sodium butyrate) was 52 μg/10^6 cells/day, the antibody concentration ([1]; 1.0 mM sodium butyrate, 41 hours) was 39 µg/mL and the antibody concentration ([1]; 1.0 mM sodium butyrate, 137 hours) was 180 µg/mL. The antibody concentration ([1]; 1.0 mM sodium butyrate, 207 hours) was 256 µg/mL, the “HARVEST ANTIBODY TITER” value (hybridoma cell line A; 0.35 mM butyrate) was 35 mg/L and the “HARVEST ANTIBODY TITER” value (hybridoma cell line A; 0.50 mM butyrate) was 36 mg/L. The “HARVEST ANTIBODY TITER” value (hybridoma cell line B; 0.35 mM butyrate) was 232 mg/L, the “HARVEST ANTIBODY TITER” value (hybridoma cell line B; 0.50 mM butyrate) was 240 mg/L and the “HARVEST ANTIBODY TITER” value (hybridoma cell line C) was 71 mg/L. For the same molecule, the “HARVEST ANTIBODY TITER” value (hybridoma cell line E; 0.35 mM butyrate) was 56 mg/L, the “HARVEST ANTIBODY TITER” value (hybridoma cell line E; 0.50 mM butyrate) was 86 mg/L and the “HARVEST ANTIBODY TITER” value (hybridoma cell line G; 0.25 mM butyrate) was 11 mg/L. The “HARVEST ANTIBODY TITER” value (hybridoma cell line G; 0.50 mM butyrate) was 13 mg/L, the “HARVEST ANTIBODY TITER” value (hybridoma cell line H) was 109 mg/L and the “HARVEST ANTIBODY TITER” value (hybridoma cell line K) was 26 mg/L. For the same molecule, the “amount of antibody produced per cell” value (Hybridoma cells) was “increased the amount of antibody produced per cell”, the “AVERAGE DATA FROM EXP. #1 & #2” value (NT1/19 cells; 0.50 mM alkanoate) was 204.39 and the “PRODUCTIVITY EXP #2” value (NT1/19 cells; 0.50 mM alkanoate) was 4.7 ug antibody per 10^5 cells. For the same molecule, the “PRODUCTIVITY EXP. #1” value (NT1/19 cells; 0.50 mM alkanoate, control 3.30) was 7.00 ug antibody per 10^5 cells, the “AVERAGE DATA FROM EXP. #1 & #2” value (NT1/19 cells; 1.00 mM alkanoate) was 368.20 and the “PRODUCTIVITY EXP #2” value (NT1/19 cells; 1.00 mM alkanoate) was 8.80 ug antibody per 10^5 cells. The “CELL DENSITY” value ([2]; 0.5 mM butyrate, maintenance period 46 hours, control 10.8) was 11.1 x10^5 cells/ml, the “CONCENTRATION OF TPA PER ML” value ([2]; 0.5 mM butyrate, maintenance period 46 hours) was 159 arbitrary units and the “CELL DENSITY” value ([2]; 0.5 mM butyrate, maintenance period 92 hours, control 13.7) was 10.3 x10^5 cells/ml. For the same molecule, the “CONCENTRATION OF TPA PER ML” value ([2]; 0.5 mM butyrate, maintenance period 92 hours) was 143 arbitrary units, the “CELL DENSITY” value ([2]; 0.5 mM butyrate, maintenance period 140 hours, control 19.1) was 12.3 x10^5 cells/ml and the “CONCENTRATION OF TPA PER ML” value ([2]; 0.5 mM butyrate, maintenance period 140 hours) was 186 arbitrary units. The “CELL DENSITY” value ([2]; 1.0 mM butyrate, maintenance period 46 hours, control 10.8) was 11.5 x10^5 cells/ml, the “CONCENTRATION OF TPA PER ML” value ([2]; 1.0 mM butyrate, maintenance period 46 hours) was 191 arbitrary units and the “CELL DENSITY” value ([2]; 1.0 mM butyrate, maintenance period 92 hours, control 13.7) was 9.2 x10^5 cells/ml. The “CONCENTRATION OF TPA PER ML” value ([2]; 1.0 mM butyrate, maintenance period 92 hours) was 157 arbitrary units, the “CELL DENSITY” value ([2]; 1.0 mM butyrate, maintenance period 140 hours, control 19.1) was 9.4 x10^5 cells/ml and the “CONCENTRATION OF TPA PER ML” value ([2]; 1.0 mM butyrate, maintenance period 140 hours) was 236 arbitrary units. The “CELL DENSITY” value ([2]; 2.5 mM butyrate, maintenance period 46 hours, control 10.8) was 9.6 x10^5 cells/ml, the “CONCENTRATION OF TPA PER ML” value ([2]; 2.5 mM butyrate, maintenance period 46 hours) was 945 arbitrary units and the “CELL DENSITY” value ([2]; 2.5 mM butyrate, maintenance period 92 hours, control 13.7) was 7.6 x10^5 cells/ml. For the same molecule, the “CONCENTRATION OF TPA PER ML” value ([2]; 2.5 mM butyrate, maintenance period 92 hours) was 1782 arbitrary units, the “CELL DENSITY” value ([2]; 2.5 mM butyrate, maintenance period 140 hours, control 19.1) was 6.6 x10^5 cells/ml and the “CONCENTRATION OF TPA PER ML” value ([2]; 2.5 mM butyrate, maintenance period 140 hours) was 3468 arbitrary units. For the same molecule, the human choriogonadotropin synthesis (HeLa-cell cultures; 1 mM, Ghosh et al, Cox & McClure) was “induce human choriogonadotropin synthesis”, the cell growth (HeLa-cell cultures; butyrate treatment) was “inhibited cell growth” and the “expression of SV40 and HSV-TK genes compared with control values” [3] was “inhibited the expression of both genes”.
